“And” between values parts separate entries of the source, which are not always exact repeats. Equal values may be shown once. “Also recorded” adds a separate entry of the source.
Tests used:
Type in all cases: in vivo, Male Sprague-Dawley rats
myocardial injury = experiment: Assay C: histopathologic analysis, semi-quantitative myocardial injury score 0 to 4; conditions: for Myocardial injury / vascular inflammatory damage (histopathology): aldosterone + salt, 7, 14, 30 days, eplerenone 100 mg/kg/day; for Myocardia 1 Necrosis (0-4): eplerenone dose 100 mg/kg/day
Procedure: The procedure of Assay B was expanded upon in a further study. […] Myocardial tissue from animals in each treatment group was examined after 7, 14, or 30 days of treatment. […] Lesions were preceded by the expression and progressive upregulation of proinflammatory molecules. […] Prior to surgery the animals were individually weighed and placed in one of the following groups: […] Potassium chloride supplementation was added to the saline solution in order to prevent the potential hypokalemia associated with aldosterone excess. […] Louis, Mo.) was inserted subcutaneously at the nape of the neck. Aldosterone was administered at a dose of 0.75 µg/hour. […] Animals were sacrificed from each group (n=8-13) after 7, 14, or 30 days of treatment. Following exsanguination, hearts and kidneys were isolated, removed, rinsed in cold phosphate-buffered saline, and blotted dry. […] The equatorial regions of the heart were routinely processed into paraffin with an automated tissue processor (Hypercenter XP, Shandon/Lipshaw Inc., Pittsburgh, Pa.) and embedded into fresh paraffin apical side down (Shandon Embedding Center, Shandon/Lipshaw Inc.). Five and 10 µm sections were cut from each block of tissue using a Leica RM2035 rotary microtome (Leica Inc., Houston, Tex.) and mounted on Superfrost/Plus microscope slides (Fisher Scientific, Pittsburgh, Pa.). Ten […]m sections were stained with the collagen specific stain, Picrosirius Red F3BA (Saturated Picric Acid (Sigma Chemical, St. […] Waterbury, Conn.) (6). Mounted tissues were hydrated with water. […] Slides were coverslipped with #1 cover glass using Permount Histological Mounting Media (Fisher Scientific). Two slides mounted with 5 µm sections were cut for each animal. One slide was processed for H&E staining and one for Periodic Acid Schiff (PAS) staining. The H&E and PAS were used for pathological scoring of the hearts. Semi-quantification of myocardial injury was performed as described previously with minor modifications (7). Briefly, a scale from 0 to 4 was used to score the level of myocardial injury. A score of 0 represented no damage. […] Myocardial necrosis was defined as the presence of necrotic changes in cardiomyocytes such as nuclear pyknosis or karyolysis, non-contracting marginal wavy fibers and hypereosinophilia of the cytoplasm, or clear evidence of destruction of the cardiomyocyte membrane.

[1] = tested on: monocyte chemoattractant protein-1 (MCP-1); experiment: Assay C: MCP-1 mRNA in heart by TaqMan RT-PCR; conditions: for MCP-1 mRNA (AU): relative to cyclophilin expression, mean ± SEM, eplerenone dose 100 mg/kg/day; for MCP1 (AU): mRNA, individual rats, incl. rat marked * excluded from statistics; for MCP-1 mRNA expression: myocardium, aldosterone + salt, 7, 14, 30 days, eplerenone 100 mg/kg/day
Procedure: (§1) The procedure of Assay B was expanded upon in a further study. […] Myocardial tissue from animals in each treatment group was examined after 7, 14, or 30 days of treatment.
(§2) Potassium chloride supplementation was added to the saline solution in order to prevent the potential hypokalemia associated with aldosterone excess.
(§3) At the time of the surgery, an Alzet 2002 osmotic minipump (Alza Corp., Palo Alto, Calif.) containing either vehicle (9% ethanol/87% propylene glycol/4% dH2O) or 1.0 mg/mL d-aldosterone (Sigma Chemical, St. Louis, Mo.) was inserted subcutaneously at the nape of the neck. Aldosterone was administered at a dose of 0.75 µg/hour. […] Animals were sacrificed from each group (n=8-13) after 7, 14, or 30 days of treatment.
(§4) The fluorogenic 5′-nuclease assay (TaqMan PCR) using Applied Biosystems' 7700 Sequence Detection System (Applied Biosystems, Foster City, Calif.) allowed for real time detection/quantitation of a specific gene by monitoring the increase in fluorescence of a gene-specific, dye-labeled oligonucleotide probe. Probes for target and reference genes were labeled at the 5′-end with a 6-carboxyfluorescein (6FAM) reporter dye and at the 3′-end with a 6-carboxy-N,N,N′,N′-tetramethylrhodamine (TAMRA) quencher dye. When the probe was annealed to the target gene, fluorescence of 6FAM was prevented by the close proximity of TAMRA. The exonuclease activity of Taq polymerase released the dyes from the oligonucleotide probe by displacing the probe from the target sequence resulting in fluorescence excitation in direct proportion to the amount of target message present. Data analysis was performed using the Sequence Detection System software from Applied Biosystems.
(§5) All primers and probes were designed using Primer Express software supplied with the 7700 Sequence Detection System and synthesized by Applied Biosystems. Standard curves using 5-fold dilutions of total RNA (from 200 ng to 320 pg) were performed to determine the efficiency of each primer/probe set in the TaqMan reaction prior to the analysis of the experimental samples. Primer/probe sets were designed from known sequences of rat genes to be analyzed. All target gene values were normalized to a reference gene, constitutively expressed cyclophilin. Primer/probe set sequences can be found in Table 8.
(§6) RNA was extracted from frozen (−80° C.) rat heart tissue using the Totally RNA Isolation Kit (Ambion, Inc., Austin, Tex.). Tissue was crushed using a stainless steel mortar and pestle, which had been chilled to −80° C. and transferred to a dounce homogenizer (Kontes, Vineland, N.J.) containing 3-10 mL cold denaturation buffer. Tissue was homogenized and transferred to a sterile, 15 mL polypropylene centrifuge tube. An equal volume of phenol:chloroform:isoamyl alcohol (25:24:1) was added, samples were shaken vigorously for 1 min, and incubated on ice for at least 15 min. Samples were centrifuged for 30 min at 10,000g. The aqueous phase was removed, 1/10 volume of a sodium acetate solution (3.0 M NaOAc pH 4.5) was added, samples were shaken or inverted for 10 seconds, and acid-phenol (premixed with isoamyl alcohol):chloroform (5:1, Ambion, Inc.) was added at an volume equivalent to the starting sample volume. Samples were shaken vigorously for 1 min, followed by a 15-min incubation on ice, and centrifuged for 30 min at 10,000 g. The aqueous phase removed and placed in a clean polypropylene tube. An equal volume of isopropanol (Sigma, St. Louis, Mo.) was added and the samples were mixed and incubated overnight at −20° C. The samples were centrifuged for 30 min at 10,000 g, the supernatant was removed and the RNA pellet was resuspended in DNAse/RNAse-free water. Samples were frozen at −80° C. for at least 2 hours, thawed on wet ice, and diluted for quantitation.

[2] = tested on: vascular cell adhesion molecule-1 (VCAM-1); experiment: Assay C: VCAM-1 mRNA in heart by TaqMan RT-PCR; conditions: for VCAM mRNA (AU): relative to cyclophilin expression, mean ± SEM, eplerenone dose 100 mg/kg/day; for VCAM (AU): mRNA; for VCAM-1 mRNA expression: myocardium, aldosterone + salt, 7, 14, 30 days, eplerenone 100 mg/kg/day
Procedure: as §1, §2, §3, §4, §5, §6

[3] = 7-day protocol, score 0-4, individual rats and group Mean
[4] = group mean, data used for Table 15 (14 days of treatment)
[5] = group mean, data used for Table 16 (30 days of treatment)
[6] = mean ± SEM after 7 days of treatment
[7] = mean ± SEM after 14 days of treatment
[8] = mean ± SEM after 30 days of treatment
[9] = group mean, data used for Table 17 (7-day protocol)
[10] = group mean, data used for Table 18 (14-day protocol)
[11] = group mean, data used for Table 19 (30-day protocol)

SMILES | Myocardial Necrosis (0-4) (myocardial injury; [3]) | Myocardial injury / vascular inflammatory damage (histopathology) (myocardial injury) | Myocardial Necrosis (0-4) (myocardial injury; [4]) | Myocardial Necrosis (0-4) (myocardial injury; [5]) | Myocardia 1 Necrosis (0-4) (myocardial injury; [6]) | Myocardia 1 Necrosis (0-4) (myocardial injury; [7]) | Myocardia 1 Necrosis (0-4) (myocardial injury; [8]) | MCP-1 mRNA (AU) ([1]; after 7 days of treatment) | MCP-1 mRNA (AU) ([1]; after 14 days of treatment) | MCP-1 mRNA (AU) ([1]; after 30 days of treatment) | MCP-1 mRNA expression [1] | VCAM mRNA (AU) ([2]; after 7 days of treatment) | VCAM mRNA (AU) ([2]; after 14 days of treatment) | VCAM mRNA (AU) ([2]; after 30 days of treatment) | VCAM (AU) [2, 9] [AU] | VCAM (AU) [2, 10] [AU] | VCAM (AU) [2, 11] [AU] | VCAM-1 mRNA expression [2] | further results
C[C@]12CCC(=O)C=C1CC[C@@H]1[C@@H]2[C@@H](O)C[C@]2(C=O)[C@@H](C(=O)CO)CC[C@@H]12 [Aldosterone] | 0.0 | focal arterial and myocardial alterations were observed starting at 14 days; also recorded: induced vascular inflammation and cardiac tissue damage | 0.8 | 2.0 | 0.0 ± 0.0 | 0.8 ± 0.3 | 2.0 ± 0.4 | 2.38 | 2.76 | 4.54 | significantly increased | 1.55 ± 0.39 | 1.16 | 2.14 ± 0.49 | 1.55 | 1.16 | 2.14 | increased two-fold | Myocardial Necrosis (0-4) (myocardial injury; individual rats, data used for Table 15 (14 days of treatment), incl. rat marked * excluded from statistics, listed as Aldosterone + salt): 0.0 (7×) and 1.0 (3×) and 3.0 (3×); Myocardial Necrosis (0-4) (myocardial injury; individual rats, data used for Table 16 (30 days of treatment), incl. rat marked * excluded from statistics, listed as Aldosterone + salt): 1.5 and 2.5 and 3.0 (2×) and 2.0 (2×) and 0.5 and 0.3 and 3.5; MCP1 (AU) ([1]; data used for Table 17 (7-day protocol), listed as Aldosterone + salt): 2.05 AU and 1.78 AU and 3.06 AU and 2.36 AU and 1.95 AU and 2.33 AU and 3.14 AU and 2.40 AU and 5.17 AU; MCP1 (AU) ([1]; data used for Table 18 (14-day protocol), listed as Aldosterone + salt): 2.42 AU and 1.87 AU and 4.59 AU and 3.19 AU and 3.34 AU and 1.91 AU and 2.50 AU and 2.22 AU and 5.88 AU; MCP1 (AU) ([1]; data used for Table 19 (30-day protocol), listed as Aldosterone + salt): 3.94 AU and 7.19 AU and 1.61 AU and 9.35 AU and 2.30 AU and 2.86 AU; VCAM (AU) ([2]; individual rats, data used for Table 17 (7-day protocol), incl. rat marked * excluded from statistics, listed as Aldosterone + salt): 3.49 AU and 0.85 AU and 2.06 AU and 2.51 AU and 1.65 AU and 0.61 AU and 0.94 AU and 0.27 AU and 5.23 AU; VCAM (AU) ([2]; individual rats, data used for Table 18 (14-day protocol), incl. rat marked * excluded from statistics, listed as Aldosterone + salt): 0.89 AU and 0.69 AU and 0.84 AU and 0.72 AU and 2.23 AU and 1.03 AU and 1.65 AU and 1.24 AU and 1.75 AU; VCAM (AU) ([2]; individual rats, data used for Table 19 (30-day protocol), incl. rat marked * excluded from statistics, listed as Aldosterone + salt): 3.48 AU and 1.87 AU and 2.99 AU and 1.64 AU and 0.72 AU
COC(=O)[C@@H]1CC2=CC(=O)CC[C@]2(C)[C@@]23O[C@@H]2C[C@@]2(C)[C@@H](CC[C@@]24CCC(=O)O4)[C@H]13 [Eplerenone] | 0.0 | markedly attenuated | 0.5 | 0.0 | 0.0 ± 0.0 | 0.5 ± 0.2 | 0.0 ± 0.0 | 1.56 | 1.59 | 2.29 | inhibition; also recorded: significantly reduced | 0.56 ± 0.08 | 0.83 | 1.04 ± 0.14 | 0.56 | 0.83 | 1.04 | inhibition; also recorded: significantly reduced | Myocardial Necrosis (0-4) (myocardial injury; individual rats, data used for Table 15 (14 days of treatment), incl. rat marked * excluded from statistics, listed as Eplerenone + aldosterone + salt): 1.0 (3×) and 0.0 (7×) and 2.0; Myocardial Necrosis (0-4) (myocardial injury; individual rats, data used for Table 16 (30 days of treatment), incl. rat marked * excluded from statistics): 0.0; MCP1 (AU) ([1]; data used for Table 17 (7-day protocol), listed as Eplerenone + aldosterone + salt): 2.35 AU and 1.60 AU and 0.85 AU and 0.83 AU and 1.74 AU and 2.38 AU and 0.67 AU and 2.03 AU; MCP1 (AU) ([1]; data used for Table 18 (14-day protocol), listed as Eplerenone + aldosterone + salt): 1.78 AU and 1.37 AU and 1.27 AU and 1.75 AU and 1.60 AU and 1.24 AU (2×) and 1.92 AU and 1.89 AU and 2.21 AU and 1.20 AU; MCP1 (AU) ([1]; data used for Table 19 (30-day protocol), listed as Eplerenone + aldosterone + salt): 2.11 AU (2×) and 1.70 AU and 2.21 AU and 1.38 AU and 2.10 AU and 2.02 AU and 1.43 AU and 5.58 AU and 8.14 AU; VCAM (AU) ([2]; individual rats, data used for Table 17 (7-day protocol), incl. rat marked * excluded from statistics, listed as Eplerenone + aldosterone + salt): 0.67 AU and 0.58 AU and 0.22 AU and 0.57 AU and 0.53 AU and 1.00 AU; VCAM (AU) ([2]; individual rats, data used for Table 18 (14-day protocol), incl. rat marked * excluded from statistics, listed as Eplerenone + aldosterone + salt): 0.54 AU and 0.66 AU and 0.61 AU (2×) and 0.67 AU and 0.86 AU and 1.21 AU and 1.00 AU and 0.68 AU (2×) and 1.60 AU; VCAM (AU) ([2]; individual rats, data used for Table 19 (30-day protocol), incl. rat marked * excluded from statistics, listed as Eplerenone + aldosterone + salt): 1.42 AU (2×) and 1.29 AU and 1.49 AU and 1.27 AU and 0.79 AU and 0.52 AU and 0.57 AU and 0.61 AU and 4.01 AU

Reference: patent US6716829B2, “Aldosterone antagonist and cyclooxygenase-2 inhibitor combination therapy to prevent or treat inflammation-related cardiovascular disorders” (Pharmacia Corporation, priority 2000, dated 2004)
